For the first assay, the target named is human PAD4 (Homo sapiens (Human), UniProt Q9UM07). The assay is described as follows: In Vitro PAD4 BAEE Biochemical Assay. The settings on record: human PAD4, BAEE substrate; 5 nM PAD4, 2 mM calcium chloride, 3 mM BAEE; geometric mean of multiple experiments. The gist of the method:
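Deimination of BAEE substrate (3 mM) measured as ammonia via o-phthalaldehyde–DTT isoindole fluorescence, 405/535 nm. Tag-free bacterially expressed human PAD4 at 5 nM with 2 mM calcium chloride, pH 7.6 MOPS buffer, 30 min compound preincubation then 2 h reaction, both at 25 °C.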
Sequence of human PAD4 (Q9UM07 2-663): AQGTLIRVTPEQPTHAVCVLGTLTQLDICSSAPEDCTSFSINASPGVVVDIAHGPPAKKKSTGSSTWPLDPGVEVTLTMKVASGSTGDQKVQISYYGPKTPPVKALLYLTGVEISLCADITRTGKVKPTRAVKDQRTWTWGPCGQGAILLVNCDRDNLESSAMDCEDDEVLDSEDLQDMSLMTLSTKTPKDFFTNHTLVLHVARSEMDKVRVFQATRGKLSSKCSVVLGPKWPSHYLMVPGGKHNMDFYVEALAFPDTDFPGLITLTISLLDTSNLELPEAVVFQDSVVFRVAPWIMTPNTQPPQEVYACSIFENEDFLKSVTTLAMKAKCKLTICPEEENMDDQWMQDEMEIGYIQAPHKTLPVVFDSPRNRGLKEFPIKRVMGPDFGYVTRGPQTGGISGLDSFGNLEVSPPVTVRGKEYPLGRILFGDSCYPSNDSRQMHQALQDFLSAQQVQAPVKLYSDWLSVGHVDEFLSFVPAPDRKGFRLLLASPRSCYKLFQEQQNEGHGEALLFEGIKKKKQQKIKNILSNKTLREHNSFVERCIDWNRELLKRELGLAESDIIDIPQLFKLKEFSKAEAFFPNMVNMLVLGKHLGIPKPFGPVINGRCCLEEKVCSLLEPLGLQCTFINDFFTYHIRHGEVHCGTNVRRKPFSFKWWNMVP
What is called IC50 is the concentration that gives 50% inhibition. With `COc1cc(C(=O)N2C[C@H](N)CCN2C)cc2nc(-c3cc4ccc([C@@H](C)NC(=O)c5cc(F)cc(F)c5)nc4n3CC3CC3)n(C)c12` [Example 156, N-((R)-1-(2-(5-((R)-5-amino-2-methylhexahydropyridazine-1-carbonyl)-7-methoxy-1-methyl-1H-benzo[d]imidazol-2-yl)-1-(cyclopropylmethyl)-1H-pyrrolo[2,3-b]pyridin-6-yl)ethyl)-3,5-difluorobenzamide], the IC50 was found to be 0.166 µM.
Same read-out and setting: with `COc1cc(C(=O)N2C[C@H](N)CCN2C)cc2nc(-c3cc4ccc(C(C)(C)NC(=O)c5ccccc5)nc4n3CC3CC3)n(C)c12` [Example 209] the figure was 0.199 µM; with `COc1cc(C(=O)N2C[C@H](N)CC[C@@H]2C)cc2nc(-c3cc4ccc(-c5c(C)ccc6[nH]ncc56)nc4n3CC3CC3)n(C)c12` [Example 273, ((2S,5R)-5-amino-2-methylpiperidin-1-yl)(2-(1-(cyclopropylmethyl)-6-(5-methyl-1H-indazol-4-yl)-1H-pyrrolo[2,3-b]pyridin-2-yl)-7-methoxy-1-methyl-1H-benzo[d]imidazol-5-yl)methanone], 2.33 µM.
Regarding `COc1cc(C(=O)N2CCC[C@@H](N)C2)cc2nc(-c3cc4ccc(N(C)S(=O)(=O)c5ccccc5)nc4n3CC3CC3)n(C)c12` [Example 12, (R)-N-(2-(5-(3-aminopiperidine-1-carbonyl)-7-methoxy-1-methyl-1H-benzo[d]imidazol-2-yl)-1-(cyclopropylmethyl)-1H-pyrrolo [2,3-b]pyridin-6-yl)-N-methylbenzenesulfonamide], the IC50 was found to be 0.225 µM.
Still for that read-out and setting: with `COc1cc(C(=O)N2C[C@H](N)CC[C@@H]2C)cc2nc(-c3cc4ccc(-c5cccnc5N5CCCC5)nc4n3CC3CC3)n(C)c12` [Example 263, ((2S,5R)-5-amino-2-methylpiperidin-1-yl)(2-(1-(cyclopropylmethyl)-6-(2-(pyrrolidin-1-yl)pyridin-3-yl)-1H-pyrrolo[2,3-b]pyridin-2-yl)-7-methoxy-1-methyl-1-benzo[d]imidazol-5-yl)methanone] the figure was 0.687 µM; with `COc1cc(C(=O)N2C[C@H](N)[C@@H]3CC[C@H]2C3)cc2nc(-c3cc4ccc([C@@H](C)NC(=O)C56CC(C(F)(F)F)(C5)C6)nc4n3CC3CC3)n(C)c12` [Example 230, N-((R)-1-(2-(5-((1S,4R,5R)-4-amino-2-azabicyclo[3.2.1]octane-2-carbonyl)-7-methoxy-1-methyl-1H-benzo[d]imidazol-2-yl)-1-(cyclopropylmethyl)-1H-pyrrolo[2,3-b]pyridin-6-yl)ethyl)-3-(trifluoromethyl)bicyclo[1.1.1] pentane-1-carboxamide], 0.127 µM; with `COc1cc(C(=O)N2CCC[C@@H](N)C2)cc2nc(-c3cc4ccc(N(C5CCC5)S(C)(=O)=O)nc4n3CC3CC3)n(C)c12` [Example 15, (R)-N-(2-(5-(3-aminopiperidine-1-carbonyl)-7-methoxy-1-methyl-1H-benzo[d]imidazol-2-yl)-1-(cyclopropylmethyl)-1H-pyrrolo [2,3-b]pyridin-6-yl)-N-cyclobutylmethanesulfonamide], 0.136 µM.
With `COc1cc(C(=O)N2C[C@H](N)CCN2C)cc2nc(-c3cc4ccc([C@@H](C)NC(=O)C5(CCF)CC5)nc4n3CC3CC3)n(C)c12` [Example 215, N-((R)-1-(2-(5-((R)-5-amino-2-methylhexahydropyridazine-1-carbonyl)-7-methoxy-1-methyl-1H-benzo[d]imidazol-2-yl)-1-(cyclopropylmethyl)-1H-pyrrolo[2,3-b]pyridin-6-yl)ethyl)-1-(2-fluoroethyl)cyclopropane-1-carboxamide], the IC50 is 0.111 µM.
As for `CCN(C(=O)OC)c1ccc2cc(-c3nc4cc(C(=O)N5CCC[C@@H](N)C5)ccc4n3C3CC3)n(CC3CC3)c2n1` [Example 113, (R)-methyl (2-(5-(3-aminopiperidine-1-carbonyl)-1-cyclopropyl-1H-benzo[d]imidazol-2-yl)-1-(cyclopropylmethyl)-1H-pyrrolo[2,3-b]pyridin-6-yl)(ethyl)carbamate], the IC50 stood at 0.196 µM.
On the same count and under the same terms, with `COc1cc(C(=O)N2C[C@H](N)CCN2C)cc2nc(-c3cc4ccc([C@@H](C)NC(=O)c5ccc(F)cc5)nc4n3CC3CC3)n(C)c12` [Example 155, N-((R)-1-(2-(5-((R)-5-amino-2-methylhexahydropyridazine-1-carbonyl)-7-methoxy-1-methyl-1H-benzo[d]imidazol-2-yl)-1-(cyclopropylmethyl)-1H-pyrrolo[2,3-b]pyridin-6-yl)ethyl)-4-fluorobenzamide] the figure was 0.165 µM.
Same read-out and setting: the value for `COc1cc(C(=O)N2C[C@H](N)CC[C@@H]2C)cc2nc(-c3cc4ccc(-c5c(C)ccnc5-c5ccccc5)nc4n3CC3CC3)n(C)c12` [Example 276, ((2S,5R)-5-amino-2-methylpiperidin-1-yl)(2-(1-(cyclopropylmethyl)-6-(4-methyl-2-phenylpyridin-3-yl)-1H-pyrrolo[2,3-b]pyridin-2-yl)-7-methoxy-1-methyl-1H-benzo[d]imidazol-5-yl)methanone] was 0.423 µM; that for `COc1cc(C(=O)N2C[C@H](N)CCN2C)cc2nc(-c3cc4ccc([C@@H](C)NC(=O)c5c(C)cccc5C(F)(F)F)nc4n3CC3CC3)n(C)c12` [Example 184, N-((R)-1-(2-(5-((R)-5-amino-2-methylhexahydropyridazine-1-carbonyl)-7-methoxy-1-methyl-1H-benzo[d]imidazol-2-yl)-1-(cyclopropylmethyl)-1H-pyrrolo[2,3-b]pyridin-6-yl)ethyl)-2-methyl-6-(trifluoromethyl)benzamide] was 0.204 µM.
Still for that read-out and setting: with `C[C@@H](NC(=O)C(C)(C)C)c1ccc2cc(-c3nc4cc(C(=O)N[C@H]5CNCC[C@@H]5F)c(F)cc4n3C)n(CC3CC3)c2n1` [Example 216, 2-(1-(cyclopropylmethyl)-6-((R)-1-pivalamidoethyl)-1H-pyrrolo[2,3-b]pyridin-2-yl)-6-fluoro-N-((3S,4S)-4-fluoropiperidin-3-yl)-1-methyl-1H-benzo[d]imidazole-5-carboxamide] the figure was 0.158 µM; with `COc1cc(C(=O)N2[C@H]3CC[C@@H]2[C@H](N)C3)cc2nc(-c3cc4ccc(N5[C@@H](C)CCCS5(=O)=O)nc4n3CC3CC3)n(C3CC3)c12` [Example 102, ((1R,2R,4S)-2-amino-7-azabicyclo[2.2.1]heptan-7-yl)(1-cyclopropyl-2-(1-(cyclopropylmethyl)-6-((S)-3-methyl-1,1-dioxido-1,2-thiazinan-2-yl)-1H-pyrrolo[2,3-b]pyridin-2-yl)-7-methoxy-1H-benzo[d]imidazol-5-yl)methanone], 0.042 µM; with `CCN(c1ccc2cc(-c3nc4cc(C(=O)N5CC(N)CCC5C)cc(OC)c4n3C)n(CC3CC3)c2n1)S(C)(=O)=O` (centres unmarked) [Example 29, N-(2-(5-(5-amino-2-methylpiperidine-1-carbonyl)-7-methoxy-1-methyl-1H-benzo[d]imidazol-2-yl)-1-(cyclopropylmethyl)-1H-pyrrolo [2,3-b]pyridin-6-yl)-N-ethylmethanesulfonamide], 0.173 µM.
For `COc1cc(C(=O)N2CCC[C@@H](N)[C@H]2C)cc2nc(-c3cc4ccc(N(C)S(C)(=O)=O)nc4n3CC3CC3)n(CC3CC3)c12` [Example 24, N-(2-(5-((2R,3R)-3-amino-2-methylpiperidine-1-carbonyl)-1-(cyclopropylmethyl)-7-methoxy-1H-benzo[d]imidazol-2-yl)-1-(cyclopropylmethyl)-1H-pyrrolo [2,3-b]pyridin-6-yl)-N-methylmethanesulfonamide], the IC50 was 0.124 µM.

The assay is the same for the next values; noted with them: recombinant PAD4 5 nM, 2 mM calcium chloride, 3 mM BAEE substrate; geometric mean of multiple experiments.
Consider `[2H]C1([2H])[C@H](N)[C@@H]2CC[C@@H](C2)N1C(=O)c1cc(OC)c2c(c1)nc(-c1cc3ccc(C(C)NC(=O)C45CC(F)(C4)C5)nc3n1CC1CC1)n2C` (stereo partly drawn) [Example 301, N-((R)-1-(2-(5-((1S,4R,5R)-4-amino-2-azabicyclo[3.2.1]octane-2-carbonyl-3,3-d2)-7-methoxy-1-methyl-1H-benzo[d]imidazol-2-yl)-1-(cyclopropylmethyl)-1H-pyrrolo[2,3-b]pyridin-6-yl)ethyl)-3-fluorobicyclo[1.1.1]pentane-1-carboxamide], for which the IC50 is 0.0658 µM.
Regarding `COc1cc(C(=O)N2C[C@H](N)[C@@H]3CC[C@H]2C3)cc2nc(-c3cc4ccc([C@@H](C)NC(=O)c5ccnc(Cl)c5)nc4n3CC3CC3)n(C)c12` [Example 298, N-((R)-1-(2-(5-((1S,4R,5R)-4-amino-2-azabicyclo[3.2.1]octane-2-carbonyl)-7-methoxy-1-methyl-1H-benzo[d]imidazol-2-yl)-1-(cyclopropylmethyl)-1H-pyrrolo[2,3-b]pyridin-6-yl)ethyl)-2-chloroisonicotinamide], the IC50 stood at 0.0864 µM.
Take `COc1cc(C(=O)N2C[C@H](N)[C@@H]3CC[C@H]2C3)cc2nc(-c3cc4ccc([C@@H](C)NC(=O)C(C)(C)CC(F)(F)F)nc4n3CC3CC3)n(C)c12` [Example 329, N-((R)-1-(2-(5-((1S,4R,5R)-4-amino-2-azabicyclo[3.2.1]octane-2-carbonyl)-7-methoxy-1-methyl-1H-benzo[d]imidazol-2-yl)-1-(cyclopropylmethyl)-1H-pyrrolo[2,3-b]pyridin-6-yl)ethyl)-4,4,4-trifluoro-2,2-dimethylbutanamide]: the IC50 worked out at 0.129 µM.
On the same count and under the same terms, with `C[C@@H](NC(=O)c1cnn(C2CC2)c1)c1ccc2cc(-c3nc4cc(C(=O)N5C[C@H](N)[C@@H]6CC[C@H]5C6)cc(F)c4n3C3CC3)n(CC3CC3)c2n1` [Example 231, N-((R)-1-(2-(5-((1S,4R,5R)-4-amino-2-azabicyclo[3.2.1]octane-2-carbonyl)-1-cyclopropyl-7-fluoro-1H-benzo[d]imidazol-2-yl)-1-(cyclopropylmethyl)-1H-pyrrolo[2,3-b]pyridin-6-yl)ethyl)-1-cyclopropyl-1H-pyrazole-4-carboxamide] the figure was 0.0559 µM.

These data come from US11878965B2, “Inhibitors of peptidylarginine deiminases” (Gilead Sciences, Inc., priority 2020, dated 2024).
